Patent publication US20230113516A1, “5-AMINO-2,3-DIHYDRO-1,4-PHTHAL[…] TREATMENT OF ACUTE LUNG INJURY” (Metriopharm AG, priority 2020, published 2023)
Where two headings read alike, the source gives them in different places.

How the values were obtained:
[1] = test system: murine peritoneal macrophages
Description: Female C57Bl/6 mice (6-8 weeks old) were purchased from Envigo (San Petro al Natisone, Udine, Italy) and housed under standard laboratory conditions (specific-pathogen free). Food and water were applied ad libitum. Animal handling and the study protocol were in accordance with international guidelines.
Four days after i.p. injection of 3% thioglycolate medium (w/v in distilled water; St Louis, Mo. USA), murine peritoneal macrophages (PM) were isolated according to the protocol of Zhang et al. (Curr. Protoc. Immunol. 2008, Chapter 14, Unit 14.1).
Briefly, cells were collected by injecting 10 ml of complete medium (DMEM/F12 Medium containing 10% fetal calf serum) into the peritoneal cavity using a 30 cc syringe attached to a 19-G needle, followed by slowly withdrawing the lavage fluid. Cells were washed twice in PBS (phosphate buffered saline) and counted.
One hour prior to LPS (lipopolysaccharide) stimulation (0.1 μg/ml; Escherichia coli […], St Louis, Mo. USA), cells (0.5×10^6 cells/well in 24-well plates with 1 ml total volume of medium) were pre-treated with scalar concentrations of 5-amino-2,3-dihydro-1,4-phthalazinedione sodium salt (ranging from 1 mM to 0.025 mM). Two independent experiments (each using cells pooled from three mice) were performed and secreted cytokine levels were determined 24, 48 and 72 h after LPS stimulation using ELISA technique.

PCI model of sepsis = settings: for survival rate after 10 days: therapeutic mode, n=6
Method: In the PCI (peritoneal contamination and infection) model of sepsis a human fecal suspension was injected intraperitoneally to mice (3 μl/g body weight). To all groups the antibiotic meropenem (25 mg/kg body weight) was administered 6 hours after PCI induction. At this time point all mice received also a volume loading with a 5% glucose solution. This treatment is repeated on the two consecutive days after PCI induction, at intervals of 24 hours. • Group I: control (not infected) • Group II: PCI (infected, without treatment) • Group III: PCI+2 mg/kg body weight 5-amino-2,3-dihydro-1,4-phthalazinedione sodium salt Form I • Group IV: PCI+5 mg/kg body weight 5-amino-2,3-dihydro-1,4-phthalazinedione sodium salt Form I
Starting at 8 hours after PCI induction the mice of the treatment groups were treated for two consecutive days every 8 hours with an intraperitoneal injection of 2 mg/kg body weight, respectively 5 mg/kg body weight 5-amino-2,3-dihydro-1,4-phthalazinedione sodium salt Form I. Thereupon the mice were treated for further eight days with an intraperitoneal injection of 2 mg/kg body weight, respectively 5 mg/kg body weight 5-amino-2,3-dihydro-1,4-phthalazinedione sodium salt Form I once daily. (n=6)
Herein the mice were treated with 5 mg/kg body weight 5-amino-2,3-dihydro-1,4-phthalazinedione sodium salt Form I only, but only twice, 3 hours before PCI induction and 6 hours after (n=8).
The Clinical Severity Score (CSS) was assessed daily for the mice of the prophylactic treatment group. The CSS was assessed according to Gonnert et al. (2011) J Surg Res 170: e123-134.

[2] = test system: 3-nitrotyrosine formation in the lung parenchyma; settings: for 3-nitrotyrosine stained surface area, mean ± SEM: cigarette smoke alone 3.07, room air 0.24
Method: C57BL/6J mice (n=25, 5 per group; male/female, 3-6 months, 20-30 g; Charles River GmbH, Sulzfeld, Germany) were anesthetized with a ketamine (100 mg/kg body weight) and xylazine (20 mg/kg body weight) intraperitoneal injection (Ceva Tiergesundheit GmbH, Dusseldorf, Germany) containing heparin (50 I.E. heparin/g body weight; Ratiopharm GmbH, Ulm, Germany). The lungs and the heart were removed from the chest cavity and placed on the ILU system (see FIGS. 1A and 1B). Lungs were ventilated in an isolated chamber using normoxic gas (21% O2, 5% CO2, 74% N2; 150 breaths per minute at the PEEP (positive end-expiratory pressure) of 3 cm H2O) and perfused with a modified Krebs-Henseleit buffer (120.0 mM NaCl, 4.3 mM KCl, 1.1 mM KH2PO4, 2.4 mM CaCl2, 1.3 mM MgCl2, 13.14 mM glucose, 0.25 mM hydroxyethyl starch 200000/0.5, 25.0 mM NaHCO3 adjusted to a constant pH range of […] L-arginine; Serag-Wissner GmbH & Co. KG, Naila, Germany) at a temperature of 37° C. Lung weight, right and left ventricle pressure, as well as ventilatory pressure were monitored and recorded during the whole experimental procedure. After 5-10 minutes, when the lung was properly flushed and all the parameters were stable, 5-amino-2,3-dihydro-1,4-phthalazinedione sodium salt was applied by adding 150 μl of a stock solution to 15 ml of the circulating perfusion buffer. The substance was applied 10 minutes prior to the first cigarette smoke application. Cigarette smoke was applied via trachea while lung is perfused with the buffer containing 5-amino-2,3-dihydro-1,4-phthalazinedione sodium salt. Cigarette smoke was prepared freshly before each application, by burning one cigarette (research cigarettes 3R4F, University of Kentucky, USA) in one minute using normoxic gas at the flow of 1 l/min and collected in a 1 l glass bottle containing 5 g silica gel for removing the moist from the cigarette smoke. 50 ml of the cigarette smoke were taken via a syringe and applied to the lung via trachea (FIG. 4A) in deep breaths (periodic inflation for 3-4 s) over a period of 5 min. The application was done manually while carefully monitoring the inspiratory pressure to avoid damage of the lung. The cigarette smoke application was repeated three times with a 1 hour break in-between.
5-amino-2,3-dihydro-1,4-phthalazinedione sodium salt Form I was dissolved in water for injection (vehicle) at the required concentrations described above. Stock solutions were prepared in water for injection. Further 1:100 dilutions were made with modified Krebs-Henseleit buffer (see above). Stock solutions were stored at −70° C. in appropriate aliquots. The required amount of stock solution was thawed, and the corresponding working solution was prepared for immediate use.
One hour after the third cigarette smoke application lungs were removed from the system and fixed by inflating with formalin solution (via trachea) at the pressure of 12-15 cm H2O for two hours at room temperature. Afterwards the fixed lungs were kept in PBS (phosphate buffer saline, see below) at +4° C. until further dehydration and paraffin embedding. Paraffin blocks were cut 3 μm thick, dried overnight at 37° C. and stained for 3-nitrotyrosine (3-NT).
The immunohistochemical staining of 3-nitrotyrosine was carried out according to the following protocol:
Stained histological samples were blindly analysed by light microscope. 3-nitrotyrosine levels in the lung parenchyma were quantified as a percentage of stained surface area. Quantification was performed under 200× magnification in 5-10 randomly selected fields with exclusion of large bronchi and vessels. One-Way ANOVA statistical test with Bonferroni correction was performed for comparison between groups. Differences with p<0.05 were considered statistically significant.

Vero B4 cells = settings: antivirally effective concentrations; observation period of 3 days; tested 0.25-4 mM
Description: Herein viable cells with an intact mitochondrial succinate-tetrazolium dehydrogenase system effect an enzymatic conversion of the feebly red tetrazolium salt WST-1 (4-[3-(4-iodophenyl)-2-(4-nitrophenyl)-2H-5-tetrazolio]-1,3 benzene disulfonate) into dark red formazan. This color change can be measured photometrically in a spectrophotometer. Thus, the WST assay is a very sensitive method for measuring the toxicity of substances on the cell metabolism. The value for untreated cells was set to 100%.
The value for untreated cells was set to 100%. 1 μM staurosporine (an indolocarbazole compound from Streptomyces staurosporeus, an apoptosis inducer) was used as positive control.

[3] = 1 mM, pre-treatment 1 h prior to LPS (0.1 μg/ml), C57Bl/6 PMs

Nc1cccc2c(=O)[nH][nH]c(=O)c12.[Na] [5-amino-2,3-dihydro-1,4-phthalazinedione sodium salt]
reduction of IL-1-beta level [1, 3]: ~50% | reduction of IL-6 level [1, 3]: ~80% | reduction of IL-12 level [1, 3]: ~60% | reduction of TNF-alpha level [1, 3]: about 40% | cytokine reduction in PMs of a second mouse strain ([1]; Balb/c, six concentrations from 1 mM to 0.25 mM, data not shown): clear dose-dependency | cytokine secretion of unstimulated murine PMs ([1]; no LPS, data not shown): did not affect | survival rate (PCI model of sepsis; prophylactic mode, 5 mg/kg body weight, 3 hours before and 6 hours after PCI induction, Group IV, n=8): 100% | recovery (Clinical Severity Score) versus untreated group (PCI model of sepsis; prophylactic mode, 5 mg/kg body weight, in particular after Day 4): recovered clearly more quickly | Clinical Severity Score (CSS) versus untreated group (PCI model of sepsis; prophylactic mode, 5 mg/kg body weight, surviving animals): less strongly diseased | survival rate after 10 days (PCI model of sepsis; 2 mg/kg body weight i.p., Group III): 50% | survival rate after 10 days (PCI model of sepsis; 5 mg/kg body weight i.p., Group IV): 83% | cigarette smoke induced 3-nitrotyrosine formation (in words) ([2]; 0.5 mM in perfusion buffer): moderate effect | cigarette smoke induced 3-nitrotyrosine formation (in words) ([2]; 1 mM in perfusion buffer): almost completely abolished | cigarette smoke induced 3-nitrotyrosine formation (in words) ([2]; 2 mM in perfusion buffer): almost completely abolished | 3-nitrotyrosine stained surface area, mean ± SEM ([2]; cigarette smoke + 0.5 mM in perfusion buffer (group C)): 2.24 ± 0.28 % area | 3-nitrotyrosine stained surface area, mean ± SEM ([2]; cigarette smoke + 1 mM in perfusion buffer (group D)): 0.72 ± 0.26 % area | 3-nitrotyrosine stained surface area, mean ± SEM ([2]; cigarette smoke + 2 mM in perfusion buffer (group E)): 0.37 ± 0.13 % area | toxic effect (cell viability, WST assay) (Vero B4 cells): does not display any significant toxic effect | SARS-CoV-2 nucleocapsid protein (Western Blot) (SARS-CoV-2): clear reduction | generation of SARS-CoV-2 proteins (densitometric evaluation) (SARS-CoV-2): inhibited dose-dependently
